Key:
mice = test: Analgesic, anti-inflammatory activity test (formalin test); format: in vivo; conditions: male ICR mice, 1.0% formalin (20 μl injected), sample 40 mg/kg intraperitoneal, 15 min before stimulation, n=10, average value±standard error; for 1st phase response (0 to 10 min), licking time: control 121.33 ± 5.32; for 2nd phase response (10 to 30 min), licking time: control 183.51 ± 20.10
Method: An analgesic, anti-inflammatory activity test (the so-called “formalin test”) was carried out using samples 1 to 9 as test drugs.
A 1.0% formalin solution (20 μl) was injected as a stimulant into the hypoderm of the planta depis in the hind leg of mice (five-week-old male ICR mice which, after purchase, had been subjected to quarantine and acclimation for one week). An act of licking the hind leg by the mice for alleviating the pain was then successively measured with a stopwatch 5 min by 5 min for 30 min. In this case, for each of the test drugs (samples 1 to 9), a suspension corresponding to a dose of 40 mg/kg was prepared using an aqueous solution of 0.5% polyoxyethylene sorbitan monooleate (Tween 80; a product of Atlas). The suspension (100 μl) for each sample was intraperitoneally administered to the mice 15 min before the stimulation. For a control group, the same volume of 0.5% Tween 80 was intraperitoneally administered to the mice.
It is generally known that the formalin test as described above causes a biphasic response, that is, the following first-phase response and second-phase response.
The first-phase response refers to a response indicated by pain in a 0 to 10 min period after the stimulation with formalin, that is, a response indicated by pain caused by direct stimulation of the sensory nerve at its end upon the injection of formalin. At the present time, only narcotic analgesics such as morphine are known to have inhibitory activity against this first-phase response. On the other hand, the second-phase response refers to a response indicated by pain in a 10 to 30 min period after the stimulation with formalin, that is, a response indicated by pain attributable to inflammation caused upon the injection of formalin. This response can be inhibited by conventional analgesics such as aspirin.
The analgesic, anti-inflammatory activity was evaluated in two separate phases, a phase from 0 min to 10 min after the administration and a phase from 10 min to 30 min after the administration. For each of the phases, the total number of seconds for which the mouse licked the hind leg (licking time) was calculated, and this value was compared with the value for the control.

rats = test: Acute gastric ulcer test; format: in vivo
Method: An acute gastric ulcer test was carried out using sample 2 and indometacin as test drugs. […] By contrast, for sample 2, the same test was carried out, except that, instead of indometacin, sample 2 was orally administered at a dose of 10 to 300 mg/kg.

SMILES | 1st phase response (0 to 10 min), licking time (mice) | 2nd phase response (10 to 30 min), licking time (mice) | occurrence of a gastric ulcer (rats; orally administered at a dose of 10 to 300 mg/kg, same test as for indometacin) | occurrence of a gastric ulcer (rats; orally administered at a dose of not less than 50 mg/kg, seven hr after the administration)
O=C(O)C1C(c2ccc(O)cc2)C(C(=O)O)C1c1ccc(O)cc1 (stereo not drawn) [Sample 2, 4,4′-dihydroxy-α-truxillic acid] | 102.34 ± 4.09 s | 7.12 ± 3.29 s | an ulcer did not occur at all | 
O=C(O)C1C(C(=O)O)C(c2ccccc2)C1c1ccccc1 (stereo not drawn) [Sample 4, β-truxinic acid] | 59.40 ± 7.19 s | 74.75 ± 11.94 s |  | 
O=C(O)C1C(C(=O)O)C(c2ccc(Cl)cc2)C1c1ccc(Cl)cc1 (stereo not drawn) [Sample 6, 4,4′-dichloro-β-truxinic acid] | 59.37 ± 6.04 s | 34.44 ± 9.13 s |  | 
COC(=O)C1C(c2ccc(O)cc2)C(C(=O)OC)C1c1ccc(O)cc1 (stereo not drawn) [Sample 8, dimethyl 4,4′-dihydroxy-α-truxillate] | 89.65 ± 4.67 s | 122.70 ± 7.16 s |  | 
COc1ccc2c(c1)c(CC(=O)O)c(C)n2C(=O)c1ccc(Cl)cc1 [indometacin, reference compound] |  |  |  | the occurrence of a gastric ulcer was clearly learned

Source: patent publication US20040092595A1, “Analgesic agent” (Seiwa Pharmaceuticals, Ltd., priority 2000, published 2004)
